This is an account of results in publication PMC5117811 (Nature chemical biology, 2016).

Series [1] concerns the target T1, BRD4(1) (Homo sapiens, UniProt O60885). Description: BRD4. The series is classed as binding. Particulars: BRD4(1) AlphaScreen, compared to JQ1. (In general: In Alpha technology, singlet oxygen from a donor bead excites a nearby acceptor bead.)
Series [2] is described as follows: Plasma pharmacokinetic analyses in CD1 mice. To be noted: 50 mg/kg intraperitoneally.
In another series the test system is MYC. Description: Immunoblot for MYC in MV4. The series is classed as cell-based, human. To be noted: MV4;11 cells. For orientation: Immunoblotting shows a protein as a band on a membrane.
In a further series the test system is HEXIM1. Description: Immunoblot for HEXIM1 in MV4. The format is cell-based, human. To be noted: MV4;11 cells, 10 nM, later time points (4–24 hours).
The target of another series is BRD4 (Homo sapiens, UniProt O60885). Kind of series: Immunoblot for BRD4 protein level in MV4. The format is cell-based. To be noted: MV4;11 cells.
Series [3] has as its target T1, BRD4(1). Description: BROMOscan.
The target of the next series is BRD4(2) (Homo sapiens, UniProt O60885). Description: BROMOscan.
For the next series, the target named is BRD4(1,2) (Homo sapiens, UniProt O60885). Description: BROMOscan.
Series [4] concerns the target BRD4 (full-length, short-iso.) (Homo sapiens, UniProt O60885). Kind of series: BROMOscan.

As to `COC(=O)C[C@@H]1N=C(c2ccc(Cl)cc2)c2c(sc(C(=O)NCCOCCNC(=O)c3sc4c(c3C)C(c3ccc(Cl)cc3)=N[C@@H](CC(=O)OC)c3nnc(C)n3-4)c2C)-n2c(C)nnc21` [(2S+2S)-PEG1, Dimethyl 2,2'-((6S,6'S)-(((oxybis(ethane-2,1-diyl))bis(azanediyl))bis(carbonyl))bis(4-(4-chlorophenyl)-3,9-dimethyl-6H-thieno[3,2-f][1,2,4]triazolo[4,3-a][1,4]diazepine-2,6-diyl))diacetate], the “increase in biochemical potency” value on BRD4(1) [1] is reported as 20 fold.

As for `COC(=O)C[C@@H]1N=C(c2ccc(Cl)cc2)c2c(sc(C(=O)NCCNC(=O)C[C@@H]3N=C(c4ccc(Cl)cc4)c4c(sc(C)c4C)-n4c(C)nnc43)c2C)-n2c(C)nnc21` [(6S+2S)-PEG0, Methyl 2-((S)-4-(4-chlorophenyl)-2-((2-(2-((S)-4-(4-chlorophenyl)-2,3,9-trimethyl-6H-thieno[3,2-f][1,2,4]triazolo[4,3-a][1,4]diazepin-6-yl)acetamido)ethyl)carbamoyl)-3,9-dimethyl-6H-thieno[3,2-f][1,2,4]triazolo[4,3-a][1,4]diazepin-6-yl)acetate], the PK properties entry in series [2] is “comparable PK properties to MT1”.

On to `COC(=O)C[C@@H]1N=C(c2ccc(Cl)cc2)c2c(sc(C(=O)NCCOCCNC(=O)C[C@@H]3N=C(c4ccc(Cl)cc4)c4c(sc(C)c4C)-n4c(C)nnc43)c2C)-n2c(C)nnc21` [(6S+2S)-PEG1, Methyl 2-((S)-4-(4-chlorophenyl)-2-((2-(2-(2-((S)-4-(4-chlorophenyl)-2,3,9-trimethyl-6H-thieno[3,2-f][1,2,4]triazolo[4,3-a][1,4]diazepin-6-yl)acetamido)ethoxy)ethyl)carbamoyl)-3,9-dimethyl-6H-thieno[3,2-f][1,2,4]triazolo[4,3-a][1,4]diazepin-6-yl)acetate], for which the “time of maximum effect on MYC” value in the series on MYC (10 nM) stood at 2 h. For the same compound, the “lowest concentration at which MYC was downregulated” value in the series on MYC (two hours of treatment) is reported as 10 nM. The HEXIM1 expression entry in the series with HEXIM1 is reported as “upregulation”. For the same compound, on BRD4, the “effect on BRD4 protein stability (degradation)” value is given as “No effect on protein stability”. The “displacement of phage expressing BRD4(1)” value at BRD4(1) [3] is “picomolar”. The “displacement of phage expressing BRD4(2)” value at BRD4(2) is reported as “picomolar”. For the same compound, the “displacement of phage expressing tandem bromodomain construct BRD4(1,2)” value on BRD4(1,2) is “picomolar”. The “displacement of phage expressing full length protein BRD4(full)” value in series [4] is listed as “picomolar”.
